Where two headings read alike, the source gives them in different places.
Legend:
[1] = Hydrolysis in human serum; assay type: in vitro ADME; details: male, 37 °C, compound 250 μM, read-out: Human serum stability t1/2
Protocol: A solution of each compound of the invention (10 mM) in acetonitrile was added to human serum (from human male AB plasma, Sigma) preheated at 37° C., the final concentration of the compound was 250 μM. Resulting solution were incubated at 37±0.5° C. and at appropriate time intervals 500 μL of reaction mixture was withdrawn and added to 750 μL of acetonitrile containing 0.1% trifluoroacetic acid in order to deproteinize the serum. Sample was sonicated, vortexed and then centrifuged for 10′ at 2150 g. The clear supernatant was filtered by 0.45 μm PTFE filters (Alltech) and analysed by RP-HPLC.
(§1) Analyses were carried out with a HP 1100 chromatograph system (Agilent Technologies, Palo Alto, Calif., USA) equipped with a quaternary pump (model G1311A), a membrane degasser (G1379A), a diode-array detector (DAD) (model G1315B) integrated in the HP1100 system. Data analysis was done using a HP ChemStation system (Agilent Technologies). The analytical column was a Nucleosil 100-5018 Nautilus (250×4.6 mm, 5 μm particle size) (Macherey-Nagel). The mobile phase consisting of acetonitrile/water (55/45) with 0.1% trifluoroacetic acid and the flow-rate was 1.2 mL/min. The injection volume was 20 μL (Rheodyne, Cotati, Calif.). The column effluent was monitored at 240 nm (for salicylic acid) and at 226 nm (for all the other products) and referenced against a 360 nm wavelength. Quantitation was done by comparison of peak areas with standards chromatographed under the same conditions. The hydrolysis followed first-order kinetics. The observed pseudo-first-order rate constants (kobs) were calculated from the slopes of linear plots of the natural logarithms of percent remaining products against time and the corresponding half-lives (t1/2) were obtained from […]

[2] = Hydrolysis in acidic medium (pH 1) and in phosphate buffer (pH 7.4); assay type: physicochemical; details: for Stability in buffered solutions pH 1 % unchanged after 6 h: HCl 0.1M, pH 1, 37 °C; for Stability in buffered solutions pH 1 % unchanged after 6 h / Stability in buffered solutions pH 7.4 % unchanged after 6 h: 250 μM; for Stability in buffered solutions pH 7.4 % unchanged after 6 h: phosphate buffer 50 mM pH 7.4, 37 °C
Protocol: A solution of each compound of the invention (10 mM) in acetonitrile was added to a HCl 0.1M or to a phosphate buffer 50 mM pH=7.4, containing, when necessary, 10-20% of acetonitrile as cosolvent. The final concentration of the compound was 250 μM. Resulting solution was kept at 37±0.5° C. and at appropriate time intervals a 20 μL aliquote of reaction solution was analysed by RP-HPLC.
as §1

[3] = test system: rat aorta strips; experiment: Vasodilating activity on precontracted rat aorta strips; assay type: cell-based; details: endothelium-denuded rat aortic strips contracted with 1 μM L-phenylephrine; for EC50: read-out: vasodilating activity EC50 ± SE
Protocol: Thoracic aortas were isolated from male Wistar rats weighing 180-200 g. The endothelium was removed and the vessels were helically cut: three strips were obtained from each aorta. The tissues were mounted under 1.0 g tension in organ baths containing 30 ml of Krebs-bicarbonate buffer with the following composition (mM): NaCl 111.2, KCl 5.0, CaCl2 2.5, MgSO4 1.2, KH2PO4 1.0, NaHCO3 12.0, glucose 11.1, maintained at 37° C. and gassed with 95% O2-5% CO2 (pH=7.4). The aortic strips were allowed to equilibrate for 120 min and then contracted with 1 μM L-phenylephrine. When the response to the agonist reached a plateau, cumulative concentrations of the vasodilating agent were added.
All the compounds of the invention were capable to relax precontracted rat aorta strips in a concentration dependent manner.
When the vasodilator experiments were repeated in the presence of 1 μM ODQ (1H-[1,2,4]oxadiazolo[4,3-a]quinoxalin-1-one), a well known inhibitor of the soluble guanylate cyclase (sGC), a decrease in the vasodilator potencies was observed.

[4] = test system: human platelets; experiment: Inhibition of platelet aggregation in vitro; assay type: cell-based; details: human PRP, collagen 1.0 μg/mL
Protocol: Platelet rich plasma (PRP) is prepared by centrifugation of citrated blood at 200 g for 20 minutes. […] Collagen (1.0 μg/mL) is used as platelet activator in PRP. The inhibitory activity of the compounds is tested by addition of drug to PRP 10 or 30 min before addition of the stimulus.
The antiaggregatory activity of the compounds of the invention is evaluated as % inhibition of platelet aggregation compared to control samples.

[5] = drug added 10 min before stimulus, read-out: Platelet Aggregation IC50 (collagen 95%) 10 min
[6] = drug added 30 min before stimulus, read-out: Platelet Aggregation IC50 (collagen 95%) 30 min

Compound | half-life at 250 μM [1] [min] | Stability in buffered solutions pH 1 % unchanged after 6 h [2] [%] | Stability in buffered solutions pH 7.4 % unchanged after 6 h [2] [%] | EC50 [3] [µM] | further results
CC(=O)Oc1ccccc1C(=O)OCOC(=O)c1ccc(CC(CO[N+](=O)[O-])O[N+](=O)[O-])cc1 (centres unmarked) [(1), ({4-[2,3-Bis(nitrooxy)propyl]benzoyl}oxy)methyl 2-(acetyloxy)benzoate] | 3.4 | >98 | 100 | 0.052 ± 0.007 | 
CC(=O)Oc1ccccc1C(=O)OCOC(=O)c1ccc(OCC(CO[N+](=O)[O-])O[N+](=O)[O-])cc1 (centres unmarked) [(3), ({4-[2,3-Bis(nitrooxy)propoxy]benzoyl}oxy)methyl 2-(acetyloxy)benzoate] | 5.4 | >98 | >98 | 0.041 ± 0.007 | 
CC(=O)Oc1ccccc1C(=O)OCOC(=O)CCCCO[N+](=O)[O-] [(4)] |  |  |  | 1.9 ± 0.5 | 
CC(=O)Oc1ccccc1C(=O)OCOC(=O)CCCCCO[N+](=O)[O-] [(5), {[6-(Nitrooxy)hexanoyl]oxy}methyl 2-(acetyloxy)benzoate] |  |  |  | 1.2 ± 0.2 | 
CC(=O)Oc1ccccc1C(=O)OCOC(=O)CCCC(CO[N+](=O)[O-])O[N+](=O)[O-] (centres unmarked) [(6), {[5,6-Bis(nitrooxy)hexanoyl]oxy}methyl 2-(acetyloxy)benzoate] | 2.7 | >98 | 100 | 0.39 ± 0.06 | 
CC(=O)Oc1ccccc1C(=O)OCOC(=O)CCCCCCO[N+](=O)[O-] [(7), {[7-(Nitrooxy)heptanoyl]oxy}methyl 2-(acetyloxy)benzoate] |  |  |  | 1.6 ± 0.2 | 
CC(=O)Oc1ccccc1C(=O)OCOC(=O)CCCCC(CO[N+](=O)[O-])O[N+](=O)[O-] (centres unmarked) [(8), {[6,7-Bis(nitrooxy)heptanoyl]oxy}methyl 2-(acetyloxy)benzoate] | 2.5 | >98 | 100 | 0.52 ± 0.09 | 
CC(=O)Oc1ccccc1C(=O)OCOC(=O)Cc1ccc(OCC(CO[N+](=O)[O-])O[N+](=O)[O-])cc1 (centres unmarked) [(10), [(2-{4-[2,3-Bis(nitrooxy)propoxy]phenyl}acetyl)oxy]methyl 2-(acetyloxy)benzoate] |  |  |  | 0.27 ± 0.05 | 
CC(=O)Oc1ccccc1C(=O)OCOC(=O)c1ccc(CCCO[N+](=O)[O-])cc1 [(12), ({4-[3-(Nitrooxy)propyl]benzoyl}oxy)methyl 2-(acetyloxy)benzoate] |  |  |  | 0.075 ± 0.014 | IC50 [4, 5]: 41 µM; IC50 [4, 6]: 14 µM
CC(=O)Oc1ccccc1C(=O)OCOC(=O)c1ccccc1OC(=O)CCC(CO[N+](=O)[O-])O[N+](=O)[O-] (centres unmarked) [(13), [(2-{[4,5-Bis(nitrooxy)pentanoyl]oxy}benzoyl)oxy]methyl 2-(acetyloxy)benzoate] |  |  |  | 0.082 ± 0.014 | 
CC(=O)Oc1ccccc1C(=O)OCOC(=O)c1ccc(OCCCO[N+](=O)[O-])cc1O [(14), {[2-(Acetyloxy)benzoyl]oxy}methyl 2-hydroxy-4-[3-(nitrooxy)propoxy]benzoate] |  |  |  | 0.008 ± 0.0011 | 
CC(=O)Oc1ccccc1C(=O)OCOC(=O)c1ccc(SCC(CO[N+](=O)[O-])O[N+](=O)[O-])cc1 (centres unmarked) [(16), [(4-{[2,3-Bis(nitrooxy)propyl]thio}benzoyl)oxy]methyl 2-(acetyloxy)benzoate] | 4.8 | >98 | >98 |  | 
CC(=O)Oc1ccccc1C(=O)OCOC(=O)c1ccc(SCc2no[n+]([O-])c2C)cc1 [(20), [(4-{[(3-Methyl-furoxan-4-yl)methyl]thio}benzoyl)oxy]methyl 2-(acetyloxy)benzoate] |  |  |  |  | melting point: 96 to 97 °C
CC(=O)Oc1ccccc1C(=O)OCOC(=O)c1ccc(SCc2no[n+]([O-])c2C(N)=O)cc1 [(21), [(4-{[(3-Aminocarbonyl-furoxan-4-yl)methyl]thio}benzoyl)oxy]methyl 2-(acetyloxy)benzoate] |  |  |  |  | melting point: 149 to 151 °C
CC(=O)Oc1ccccc1C(=O)OCOC(=O)c1ccc(SCc2no[n+]([O-])c2C#N)cc1 [(22), [(4-{[(3-Cyano-furoxan-4-yl)methyl]thio}benzoyl)oxy]methyl 2-(acetyloxy)benzoate] |  |  |  |  | melting point: 98.5 to 101.5 °C

Second part, led by results:

half-life at 250 μM [1] [min] | Compound | Stability in buffered solutions pH 1 % unchanged after 6 h [2] [%] | Stability in buffered solutions pH 7.4 % unchanged after 6 h [2] [%] | EC50 [3] [µM] | further results
3 | CC(=O)Oc1ccccc1C(=O)OCOC(=O)c1ccc(OCCCO[N+](=O)[O-])cc1 [(2), ({4-[3-(Nitrooxy)propoxy]benzoyl}oxy)methyl 2-(acetyloxy)benzoate] | >98 | >98 | 0.017 ± 0.003 | 
1.5 | CC(=O)Oc1ccccc1C(=O)OCOC(=O)Cc1ccc(OCCCO[N+](=O)[O-])cc1 [(9)] | >98 | >98 | 0.3 ± 0.06 | 
2 | CC(=O)Oc1ccccc1C(=O)OCOC(=O)c1ccc(SCCCO[N+](=O)[O-])cc1 [(11), [(4-{[3-(Nitrooxy)propyl]thio}benzoyl)oxy]methyl 2-(acetyloxy)benzoate] | >98 | >98 |  | 
1 | CC(=O)Oc1ccccc1C(=O)OCOC(=O)c1ccc(S(=O)(=O)CCCO[N+](=O)[O-])cc1 [(15), [(4-{[3-(Nitrooxy)propyl]sulfonyl}benzoyl)oxy]methyl 2-(acetyloxy)benzoate] | >98 | 70 |  | half-life at 250 μM ([2]; phosphate buffer 50 mM pH 7.4, phosphate buffer pH 7.4, 37 °C, read-out: t1/2 in buffered solution pH 7.4): ~720 min; IC50 [4, 5]: 34 µM; IC50 [4, 6]: 17 µM
4.2 | CC(=O)Oc1ccccc1C(=O)OC(C)OC(=O)c1ccc(SCCCO[N+](=O)[O-])cc1 (centres unmarked) [(24), 1-{[4-([3-(nitrooxy)propyl]thio}benzoyl)oxy]ethyl 2-(acetyloxy)Benzoate] | >98 | >98 |  | 
63 | CC(=O)Oc1ccccc1C(=O)O [Aspirin, reference compound] |  |  |  | vasodilating activity EC50 ± SE [3]: no effect

Reference: US20100210694A1 (NICOX S.A., priority 2007, published 2010)
